Measurements taken from patent publication US12421212B2, “Substituted benzenecarboxamides as IL-17A modulators” (DiCE Alpha, Inc., priority 2019, dated 2025).

Biological target: T1, IL-17A/A (Homo sapiens, UniProt Q16552)
T1 construct: purchased Genscript Z03228
T1 sequence (Q16552 24-155): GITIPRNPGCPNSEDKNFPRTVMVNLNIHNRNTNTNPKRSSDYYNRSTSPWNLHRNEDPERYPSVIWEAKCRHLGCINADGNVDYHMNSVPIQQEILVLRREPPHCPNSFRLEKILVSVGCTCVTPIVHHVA
Test: IL-17A/A HEK-Blue Cell Assay
Assay type: cell-based
Settings: HEK-Blue IL-17A reporter cell line, SEAP readout at A630, 20 hours incubation with IL-17A/A; top concentration 10 uM, 1 uM or 0.3 uM

| Compound | IL-17A/A inhibition (pIC50) |
| --- | --- |
| CCC(=O)N[C@@H](C(=O)N1CCN(C)CC1)[C@@H](C)c1ccc(NC(=O)[C@@H](NC(=O)C(F)(F)C2CCOCC2)[C@H]2CC[C@H](C)CC2)c(F)c1 [Compound 660] | X3a (compounds were evaluated up to 0.3 uM and did not inhibit activity by >80%, however they showed some activity at 0.3 uM (less than 80% and more than 20%)) |
| CCC(=O)N[C@@H](C(=O)O)[C@@H](C)c1ccc(NC(=O)[C@@H](NC(=O)c2ccnn2CC)[C@H]2CC[C@H](C)CC2)c(F)c1 [Compound 661] | X3b (compounds were evaluated up to 0.3 uM and inhibited activity at 0.3 uM by less than 20%) |
| CCC(=O)NC(C(=O)N1CCN(C(C)C)CC1)[C@@H](C)c1ccc(NC(=O)[C@@H](NC(=O)c2ccnn2CC)[C@H]2CC[C@H](C)CC2)c(F)c1 (stereo partly drawn) [Compound 664] | X3b (compounds were evaluated up to 0.3 uM and inhibited activity at 0.3 uM by less than 20%) |

Same assay, conditions: HEK-Blue IL-17A reporter cell line, SEAP readout at A630, 20 hours incubation with IL-17A/A; top concentration 10 uM, 1 uM or 0.3 uM; read-out: IL-17A/A inhibition (pIC50) (converted)

| Compound | IC50 [µM] |
| --- | --- |
| CCC(=O)N[C@H](Cc1ccc(NC(=O)[C@@H](NC(=O)c2coc3ccccc23)C2CCCCC2)c(F)c1)C(=O)N1CCN(C)CC1 [Compound 632] | 0.1 to 10 |
| CCC(=O)N[C@@H](C(=O)N1CCN(C)CC1)[C@@H](C)c1ccc(NC(=O)[C@@H](NC(=O)c2ccnn2C(C)C)C2CCCCC2)cc1 [Compound 633] | 0.1 to 10 |
| CCC(=O)N[C@H](Cc1ccc(NC(=O)C(NC(=O)c2ccnn2CC)C2CCc3ccccc3C2)c(F)c1)C(=O)N1CCN(C)CC1 (stereo partly drawn) [Compound 634] | 0.1 to 10 |
| CCC(=O)N[C@H](Cc1ccc(NC(=O)[C@@H](NC(=O)c2ccnn2C(C)C)C2CCCCC2)c(F)c1)C(=O)N1CCN(C)CC1 [Compound 637] | 0.1 to 10 |
| CCC(=O)N[C@@H](C(=O)N1CCN(C)CC1)[C@@H](C)c1ccc(NC(=O)[C@@H](NC(=O)C(F)(F)c2ccccc2C#N)C2CCCCC2)c(F)c1 [Compound 638] | 0.1 to 10 |
| CCC(=O)N[C@H](Cc1ccc(NC(=O)[C@@H](NC(=O)c2ccnn2CC)C2CCCCC2)c(F)c1)C(=O)N1CCN(Cc2ccccn2)CC1 [Compound 640] | 0.1 to 10 |
| CCC(=O)N[C@H](Cc1ccc(NC(=O)[C@@H](NC(=O)C(F)(F)c2cccc(NS(C)(=O)=O)c2)C2CCCCC2)c(F)c1)C(=O)N1CCN(C)CC1 [Compound 642] | 0.1 to 10 |
| CCC(=O)N[C@H](Cc1ccc(NC(=O)[C@@H](NC(=O)c2ccnn2CC)[C@@H](C)c2ccccc2)c(F)c1)C(=O)N1CCN(C)CC1 [Compound 647] | 0.1 to 10 |
| CCC(=O)N[C@H](Cc1ccc(NC(=O)[C@@H](NC(=O)c2ccnn2CC(F)(F)F)C2CCCCC2)c(F)c1)C(=O)N1CCN(C)CC1 [Compound 648] | 0.1 to 10 |
| CCC(=O)N[C@@H](C(=O)N1CCN(C)CC1)[C@@H](C)c1ccc(NC(=O)[C@@H](NC(=O)c2ccnn2CC)[C@H]2CC[C@H](C(F)(F)F)CC2)c(F)c1 [Compound 649] | 0.1 to 10 |
| CCC(=O)N[C@H](Cc1ccc(NC(=O)[C@@H](NC(=O)c2ccnn2CC)C2CCCCC2)c(F)c1)C(=O)N1CCN(C(C)C)CC1 [Compound 651] | 0.1 to 10 |
| CCC(=O)NC(Cc1ccc(NC(=O)[C@@H](NC(=O)c2ccnn2CC)C2CCCCC2)c(F)c1)C(=O)N1CCN(Cc2cccnc2)CC1 (stereo partly drawn) [Compound 652] | 0.1 to 10 |
| CCC(=O)N[C@@H](C(=O)N1CCN(C)CC1)[C@@H](C)c1ccc(NC(=O)[C@@H](NC(=O)C(F)(F)C2CCN(C(C)=O)CC2)C2CCCCC2)c(F)c1 [Compound 653] | 0.1 to 10 |
| CCC(=O)N[C@H](Cc1ccc(NC(=O)[C@@H](NC(=O)c2ccnn2CC)C2CCCCC2)c(F)c1)C(=O)N1CC(N(C)C)C1 [Compound 667] | 0.1 to 10 |
| CCC(=O)N[C@H](Cc1ccc(NC(=O)[C@@H](NC(=O)c2ccnn2CC(F)F)C2CCCCC2)c(F)c1)C(=O)N1CCN(C)CC1 [Compound 669] | 0.1 to 10 |
| CCC(=O)N[C@H](Cc1ccc(NC(=O)[C@@H](NC(=O)c2coc3ccc(OC)cc23)C2CCCCC2)c(F)c1)C(=O)N1CCN(C)CC1 [Compound 671] | 0.1 to 10 |
| CCC(=O)N[C@H](Cc1ccc(NC(=O)[C@@H](NC(=O)c2ccnn2C(C)C)C2CCC(F)(F)CC2)c(F)c1)C(=O)N1CCN(C)CC1 [Compound 672] | 0.1 to 10 |
| CCC(=O)N[C@@H](C(=O)N1CCN(C)CC1)[C@@H](C)c1ccc(NC(=O)[C@@H](NC(=O)C(F)(F)c2cccc(C#N)c2)C2CCOCC2)c(F)c1 [Compound 674] | 0.1 to 10 |
| CCC(=O)N[C@H](Cc1ccc(NC(=O)[C@@H](NC(=O)c2ccnn2C2CC2)C2CCCCC2)c(F)c1)C(=O)N1CCN(C)CC1 [Compound 676] | 0.1 to 10 |
| CCC(=O)N[C@H](Cc1ccc(NC(=O)[C@@H](NC(=O)c2ccnn2CC)C2CCCCC2)c(F)c1)C(=O)N1CCN(CCF)CC1 [Compound 679] | 0.1 to 10 |
| CCC(=O)N[C@@H](C(=O)N1CCN(C)CC1)[C@@H](CC)c1ccc(NC(=O)[C@@H](NC(=O)c2ccnn2CC)C2CCCCC2)cc1 [Compound 680] | 0.1 to 10 |
| CCC(=O)N[C@@H](C(=O)N1CCN(C)CC1)[C@@H](C)c1ccc(NC(=O)[C@@H](NC(=O)C(F)(F)c2cccc(C)c2)C2CCCCC2)c(F)c1 [Compound 684] | 0.1 to 10 |
| CCC(=O)N[C@H](Cc1ccc(NC(=O)[C@@H](NC(=O)c2ccnn2CC)C2CCCCC2)c(F)c1)C(=O)N1CCN(C)C[C@@H]1C [Compound 686] | 0.1 to 10 |
| CCC(=O)N[C@H](Cc1ccc(NC(=O)[C@@H](NC(=O)c2cnn3c2SCC3)C2CCCCC2)c(F)c1)C(=O)N1CCN(C)CC1 [Compound 688] | 0.1 to 10 |
| CCC(=O)N[C@H](Cc1ccc(NC(=O)[C@@H](NC(=O)c2ccnn2CC)C2CCC(F)(F)CC2)c(F)c1)C(=O)N1CCN(C)CC1 [Compound 689] | 0.1 to 10 |
| CCC(=O)N[C@H](Cc1ccc(NC(=O)[C@@H](NC(=O)c2ccnn2CC)C2CCCCC2)c(F)c1)C(=O)N1CCNC2(CC2)C1 [Compound 690] | 0.1 to 10 |
| CCC(=O)N[C@H](Cc1ccc(NC(=O)[C@@H](NC(=O)c2ccnn2CC)C2CCCCC2)cc1Cl)C(=O)N1CCN(C)CC1 [Compound 691] | 0.1 to 10 |

The next lines start with the values.

| IC50 [µM] | Compound |
| --- | --- |
| 0.1 to 10 | CCn1nccc1C(=O)N[C@H](C(=O)Nc1ccc([C@H](C)[C@@H](NC(=O)c2ccc(C)s2)C(=O)N2CCN(C)CC2)cc1F)C1CCCCC1 [Compound 635] |
| 0.1 to 10 | CCn1nccc1C(=O)N[C@H](C(=O)Nc1ccc([C@H](C)[C@@H](NC(=O)NC)C(=O)N2CCN(C)CC2)cc1F)C1CCCCC1 [Compound 636] |
| 0.1 to 10 | CCC(=O)N[C@@H](C(=O)N1CCN(C)CC1)[C@@H](C)c1ccc(NC(=O)[C@@H](NC(=O)c2ccnn2CC)C2CCCCC2)cc1 [Compound 639] |
| 0.1 to 10 | CCn1nccc1C(=O)N[C@H](C(=O)Nc1ccc([C@H](C)[C@@H](NC(=O)CC(F)(F)F)C(=O)N2CCN(C)CC2)cc1F)C1CCCCC1 [Compound 643] |
| 0.1 to 10 | CCn1nccc1C(=O)N[C@H](C(=O)Nc1ccc([C@H](C)[C@@H](NC(=O)c2csnn2)C(=O)N2CCN(C)CC2)cc1F)C1CCCCC1 [Compound 644] |
| 0.1 to 10 | CCC(=O)N[C@H](Cc1ccc(NC(=O)[C@@H](NC(=O)c2ccnn2CC)C2CCCCC2)c(F)c1)C(=O)N1CCN(C)CC1 [Compound 645] |
| 0.1 to 10 | CCC(=O)N[C@H](Cc1ccc(NC(=O)[C@@H](NC(=O)c2ccnn2CC(C)C)C2CCCCC2)c(F)c1)C(=O)N1CCN(C)CC1 [Compound 646] |
| 0.1 to 10 | CCn1nccc1C(=O)N[C@H](C(=O)Nc1ccc(C[C@@H](NC(=O)CC2CC2)C(=O)N2CCN(C)CC2)cc1F)C1CCCCC1 [Compound 650] |
| 0.1 to 10 | CCn1nccc1C(=O)N[C@H](C(=O)Nc1ccc([C@H](C)[C@@H](NC(=O)c2cc(C#N)n[nH]2)C(=O)N2CCN(C)CC2)cc1F)C1CCCCC1 [Compound 655] |
| 0.1 to 10 | CCn1nccc1C(=O)N[C@H](C(=O)Nc1ccc([C@H](C)[C@@H](NC(=O)c2cc(C)no2)C(=O)N2CCN(C)CC2)cc1F)C1CCCCC1 [Compound 656] |
| 0.1 to 10 | CCn1nccc1C(=O)N[C@H](C(=O)Nc1ccc([C@H](C)[C@@H](NC(=O)c2cncn2C)C(=O)N2CCN(C)CC2)cc1F)C1CCCCC1 [Compound 657] |
| 0.1 to 10 | CCn1nccc1C(=O)N[C@H](C(=O)Nc1ccc([C@H](C)[C@@H](NC(=O)CC#N)C(=O)N2CCN(C)CC2)cc1F)C1CCCCC1 [Compound 665] |
| 0.1 to 10 | CCn1nccc1C(=O)N[C@H](C(=O)Nc1ccc([C@H](C)[C@@H](NC(=O)c2cc(C)n[nH]2)C(=O)N2CCN(C)CC2)cc1F)C1CCCCC1 [Compound 666] |
| 0.1 to 10 | CCC(=O)N[C@@H](C(=O)N1CCN(Cc2ccccc2)CC1)[C@H](C)c1ccc(NC(=O)[C@@H](NC(=O)c2ccnn2CC)C2CCCCC2)c(F)c1 [Compound 670] |
| 0.1 to 10 | CCn1nccc1C(=O)N[C@H](C(=O)Nc1ccc([C@H](C)[C@@H](NC(=O)c2cn[nH]c2)C(=O)N2CCN(C)CC2)cc1F)C1CCCCC1 [Compound 677] |
| 0.1 to 10 | CCn1nccc1C(=O)N[C@H](C(=O)Nc1ccc([C@H](C)[C@@H](NC(=O)c2cnc(C)n2C)C(=O)N2CCN(C)CC2)cc1F)C1CCCCC1 [Compound 678] |
| 0.1 to 10 | CCn1nccc1C(=O)N[C@H](C(=O)Nc1ccc([C@H](C)[C@@H](NC(=O)c2c[nH]c(=O)[nH]2)C(=O)N2CCN(C)CC2)cc1F)C1CCCCC1 [Compound 681] |
| 0.1 to 10 | CCn1nccc1C(=O)N[C@H](C(=O)Nc1ccc([C@H](C)[C@@H](NC(=O)c2cscn2)C(=O)N2CCN(C)CC2)cc1F)C1CCCCC1 [Compound 682] |
| 0.1 to 10 | CCn1nccc1C(=O)N[C@H](C(=O)Nc1ccc([C@H](C)[C@@H](NC(=O)c2coc(C)n2)C(=O)N2CCN(C)CC2)cc1F)C1CCCCC1 [Compound 683] |
| 0.1 to 10 | CCn1nccc1C(=O)N[C@H](C(=O)Nc1ccc([C@H](C)[C@@H](NC(=O)c2ccsn2)C(=O)N2CCN(C)CC2)cc1F)C1CCCCC1 [Compound 685] |
| 0.1 to 10 | CCn1nccc1C(=O)N[C@H](C(=O)Nc1ccc([C@H](C)[C@@H](NC(=O)c2cc(C)on2)C(=O)N2CCN(C)CC2)cc1F)C1CCCCC1 [Compound 687] |
